Results taken from paper PMC9431032, “Boosting Cosmeceutical Peptides: Coupling Imidazolium-Based Ionic Liquids to Pentapeptide-4 Originates New Leads with Antimicrobial and Collagenesis-Inducing Activities” (Microbiology Spectrum, 2022).
Where “and” joins values, the source holds several entries; their conditions need not be identical. Equal values may be shown once. Read-outs that look alike come from different tables or passages of the source. Peptide text beside a SMILES is read from it. * marks the point of attachment. X1 = CCCCCCCCCCCCCCCCn1cc[n+](Cc2cn(CC(=O)*)nn2)c1

Experiments:
[1] = tested on: S. epidermidis ATCC 14990; conditions: broth microdilution in cation-adjusted MHB2, CLSI, n = 3
Description: (§1) The antimicrobial activity of the IL-KTTKS conjugates was assessed in vitro against reference bacterial strains (American Type Culture Collection, ATCC). The minimal inhibitory concentration (MIC) was determined according to the Clinical and Laboratory Standards Institute (CLSI) guidelines ([28]) against Gram-positive (S. aureus, Enterococcus faecalis) and Gram-negative (Escherichia coli, Pseudomonas aeruginosa) bacteria.
(§2) (i) Antibacterial activity in standard conditions. The test conjugates and reference compounds were evaluated for their activity against three reference strains of Gram-negative bacteria, namely, E. coli (ATCC 25922), Pseudomonas aeruginosa (ATCC 27853), and Klebsiella pneumoniae (ATCC 13883), and the four following reference strains of Gram-positive bacteria, Staphylococcus aureus (ATCC 29213), S. Epidermidis (ATCC 14990), E. faecalis (ATCC 29212), and Streptococcus pyogenes (ATCC 19615). […] MBC values were also determined as previously reported ([52]).

[2] = tested on: K. pneumoniae (KP010) MDR clinical isolate; conditions: n = 3
C. albicans ATCC 90028 = assay: microbe, parasite or virus in culture; conditions: C. albicans ATCC 90028, RPMI 1640 with 2% glucose, EUCAST, n = 2
Description: (§3) The MIC values were determined according to the European Committee on Antimicrobial Susceptibility Testing (EUCAST) protocol ([36]) and are shown on Table 4.
(§4) (iii) Antifungal activity.

[3] = tested on: C. parapsilosis ATCC 22019; assay: microbe, parasite or virus in culture; conditions: C. parapsilosis ATCC 22019, RPMI 1640 with 2% glucose, EUCAST, n = 2
Description: as §3, §4

C. glabrata ATCC 90030 = assay: microbe, parasite or virus in culture; conditions: C. glabrata ATCC 90030, RPMI 1640 with 2% glucose, EUCAST, n = 2
Description: as §3, §4

[4] = tested on: S. aureus (SA007) MDR clinical isolate; conditions: for MIC: n = 3
[5] = tested on: P. aeruginosa (PA004) MDR clinical isolate; conditions: n = 3
[6] = tested on: HaCaT cells (human immortalized keratinocytes); assay: cells; format: cell-based; conditions: 24 h
Description: (§5) The cytotoxicity of KTTK(C16Im)S and C16Im-KTTKS conjugates was assessed on human foreskin fibroblasts (HFF-1) and human immortalized keratinocytes (HaCaT). […] In turn, the parent IL [C16 M1Im][Br] and its […] equimolar mixture with PP4, KTTKS:[C16 M1Im][Br]
(§6) (iv) Toxicity to human cells. HaCat and HFF-1 were seeded at 4 × 10^4cell/mL in 96-well plate using in Dulbecco’s Modified Eagle Medium (DMEM; CLS) supplemented with 2% FBS (Biowest) and 1% of antibiotic/antimycotic solution (100 units/mL of penicillin, 10 mg/mL of streptomycin, and 0.25 mg/mL of amphotericin B, Sigma-Aldrich). The plate was incubated at 37°C in a 5% CO2 atmosphere, and the cells allowed to grow until confluence was reached. Then, solutions of the test compounds in DMEM supplemented with 2% FBS, in a concentration range between 6.3 and 100 μM, were added to the wells. After 24 h of incubation at 37°C in a 5% CO2 atmosphere, the cell viability was assessed through the resazurin reduction assay. Briefly, the medium was removed and then 20 μL of the alamarBlue Cell Viability Reagent (Resazurin sodium salt, Sigma-Aldrich) at 0.15 mg/mL in 100 μL of Hank’s Balanced Salt Solution (HBSS; Sigma-Aldrich) were added to each well; the plate was next incubated for 2 h at 37°C in a 5% CO2 atmosphere, after which fluorescence was read at 560/590 nm on a Flex Station 3 multi-mode microplate reader (Molecular Devices) ([53]). The IC50 values were thus determined using the GraphPad Prism 9.0 software, by applying the equation log(inhibitor) versus response with variable slope (four parameters).

[7] = tested on: HFF-1 cells (human foreskin fibroblasts); format: cell-based; conditions: 24 h
Description: as §5, §6

S. aureus (ATCC 29213) = conditions: for MBC: ATCC 29213, 24 h; for MIC: 10^5 CFU/mL, 18 h at 37°C, three independent experiments in triplicates
Description: The antibacterial activity of C16Im-KTTKS and KTTK(C16Im)S was also assessed in simulated wound fluid (SWF) ([35]) against S. aureus (ATCC 29213), to check if it was preserved in this medium.
(ii) Antibacterial activity in simulated wound fluid. […] In parallel, SWF was prepared to a final composition of 50% fetal bovine serum (FBS; Sigma-Aldrich) and 50% peptone water (0.9% NaCl in 0.1% aqueous peptone; Sigma-Aldrich) ([35]). […] MIC values were determined in triplicates and are a result of three independent experiments.

[8] = tested on: human dermal fibroblasts (HDF); assay: Collagen production, Sircol kit assay; format: cell-based; conditions: 5 μM, 48 h, three independent experiments in triplicates, values only in Fig. 3
Description: The point of conjugating antimicrobial ILs to a collagenesis-inducing peptide was to afford a simple construct able to exert a dual antimicrobial and skin rebuilding action. Therefore, the two best IL-KTTKS conjugates were further tested for their ability to promote collagen production by human dermal fibroblasts (HDF) in vitro. This was assessed using the Sircol kit assay, whereby the amount of newly formed collagen in the ECM that is deposited in the microwell-plated cell cultures is solubilized in an acidic medium and next quantified through a collagen standard curve according to the Sircol kit assay procedure ([38]). […]
(v) Collagen production in human dermal fibroblasts. The amount of collagen produced by HDF was determined using the SIRCOL Kit Assay (Biocolor) according to the manufacturers’ instructions ([38]). […] Medium was then removed, and quantitation of the newly formed collagen proceeded as follows: collagen was solubilized in cold 0.5 M aqueous acetic acid (Fisher Chemical) and concentrated overnight with deposition of a transparent pellet; after centrifugation, the supernatant was discarded and the pellet was labeled with the SIRCOL dye reagent; after removing the unbound dye with the acid-salt wash reagent, the collagen-bound dye was dissolved with the alkali reagent and absorbance was measured at 555 nm on Flex Station 3 multimode microplate reader. […]

P. aeruginosa ATCC 27853 = assay: microbe, parasite or virus in culture; conditions: P. aeruginosa ATCC 27853; broth microdilution in cation-adjusted MHB2, CLSI; n = 3
Description: as §1, §2

E. faecalis ATCC 29212 = assay: microbe, parasite or virus in culture; conditions: E. faecalis ATCC 29212; broth microdilution in cation-adjusted MHB2, CLSI; n = 3
Description: as §1, §2

K. pneumonia ATCC 138830 = assay: microbe, parasite or virus in culture; conditions: K. pneumonia ATCC 138830; broth microdilution in cation-adjusted MHB2, CLSI; n = 3
Description: as §1, §2

E. coli ATCC 25922 = assay: microbe, parasite or virus in culture; conditions: E. coli ATCC 25922; broth microdilution in cation-adjusted MHB2, CLSI; n = 3
Description: as §1, §2

S. aureus ATCC 29213 = assay: microbe, parasite or virus in culture; conditions: S. aureus ATCC 29213; broth microdilution in cation-adjusted MHB2, CLSI; n = 3
Description: as §1, §2

[9] = in SWF (50% FBS, 50% peptone water)

| SMILES | MIC [1] | MIC [2] | MIC [4] | MIC [5] | IC50 [6] | IC50 [7] | MBC (S. aureus (ATCC 29213)) | MIC (S. aureus (ATCC 29213); in MHB) | MIC (S. aureus (ATCC 29213); [9]) | Collagen synthesis by HDF compared to the negative control [8] | MIC (P. aeruginosa ATCC 27853) | MIC (E. faecalis ATCC 29212) | MIC (K. pneumonia ATCC 138830) | MIC (E. coli ATCC 25922) | MIC (S. aureus ATCC 29213) | other results |
| --- | --- | --- | --- | --- | --- | --- | --- | --- | --- | --- | --- | --- | --- | --- | --- | --- |
| CCCCCCCCCCCCCCCCn1cc[n+](Cc2cn(CC(=O)N[C@@H](CCCCN)C(=O)N[C@H](C(=O)N[C@H](C(=O)N[C@@H](CCCCN)C(=O)N[C@@H](CO)C(N)=O)[C@@H](C)O)[C@@H](C)O)nn2)c1 [Peptide C16Im-KTTKS] (X1-KTTKS-NH2) | 9.5 μM and 9.3 μg/mL | 37.9 μM and 37.0 μg/mL | 18.5 µg/mL | 18.5 µg/mL | 36.6 ± 1.09 µM | 22.5 ± 1.08 µM | 32 to 64 µg/mL | 16 to 32 µg/mL | 16 to 32 µg/mL | produce more collagen | 28.7 μM and 28.0 μg/mL | 28.7 μM and 28.0 μg/mL | 27.4 μM and 26.8 μg/mL | 14.3 μM and 14.0 μg/mL | 14.3 μM and 14.0 μg/mL | MIC (C. albicans ATCC 90028): 4.7 μM and 4.6 μg/mL; MIC [3]: 2.4 μM and 2.3 μg/mL; MIC (C. glabrata ATCC 90030): 4.7 μM and 4.6 μg/mL; MIC relative to that of ciprofloxacin [4]: ~10 fold |
| CCCCCCCCCCCCCCCCn1cc[n+](Cc2cn(CCCC[C@H](NC(=O)[C@@H](NC(=O)[C@@H](NC(=O)[C@@H](N)CCCCN)[C@@H](C)O)[C@@H](C)O)C(=O)N[C@@H](CO)C(N)=O)nn2)c1 [KTTK(C16Im)S] | 5.4 μM and 5.0 μg/mL | 21.7 μM and 20.0 μg/mL | 21.7 μM and 20.0 μg/mL | 21.7 μM and 20.0 μg/mL | 23.1 ± 1.1 µM | 12.7 ± 1.06 µM | 32 [64 to 128] μg/mL | 32 µg/mL | 64 to 128 µg/mL | produce more collagen | 32.5 μM and 29.9 μg/mL | 32.5 μM and 29.9 μg/mL | 53.8 μM and 49.5 μg/mL | 7.0 μM and 6.45 μg/mL | 14.0 μM and 12.9 μg/mL | MIC (C. albicans ATCC 90028; listed as KTTK(C16m)S): 5.4 μM and 5.0 μg/mL; MIC ([3]; listed as KTTK(C16m)S): 2.7 μM and 2.5 μg/mL; MIC (C. glabrata ATCC 90030; listed as KTTK(C16m)S): 5.4 μM and 5.0 μg/mL |
